{
  "source": "patent EP3795574A1",
  "about": "“SYNTHESIS AND USAGE OF 1,2-DIAMINODIAMANTANE PLATINUM(II) COMPLEXES” (Justus-Liebig-Universität Gießen, priority 2019, dated 2021)",
  "key": {"testicular cancer": {"tested_on": "testicular cancer", "conditions": "cited from earlier work"}, "[1]": {"experiment": "Solubility of the complexes in solvents"}, "[2]": {"tested_on": "guanosine monophosphate (GMP)", "experiment": "Nucleotide binding experiment by 1H NMR, GMP", "conditions": "molar ratio 1:3.5, 37 °C, 66 h, DMF-d7/D2O, compared to cisplatin", "excerpt": "(§1) Formation of DNA cross-links is the crucial part of the platinum cytotoxicity mechanism. To study diaplatin complex 1 activity on nucleotides in comparison to cisplatin we chose guanosine monophosphate (GMP) and deoxyguanosine monophosphate (dGMP) as substrates (Fig 6). The reaction between platinum complexes and GMP or dGMP causes substitution of their leaving group ligands with nucleotide forming monoadducts that quickly lose a second leaving ligand forming bisadducts. The N7 atom of the purine fragment is known to be the preferred site of attachment to platinum, thus causing easily observable downfield NMR shifts of the adjacent H8 atom. The collected ^1H NMR data during incubation of the reaction mixtures provide time-dependent changes of the H8 atom integral, thereby providing insights into the binding rates between the studied complexes (Fig 7).\n(§2) A platinum complex solution in DMF-d7 (0.27 mL, 6.9 mM) was reacted with GMP or dGMP in a molar ratio 1:3.5 introduced with a NaClO4 solution in D2O (0.33 mL, 100 mM). The reaction mixture was immediately transferred into an NMR tube and ^1H NMR data were collected every hour for 66 h at 37 °C. The pH was measured immediately after the reaction mixture was prepared and at the end of the reaction at rt."}, "[3]": {"tested_on": "deoxyguanosine monophosphate (dGMP)", "experiment": "Nucleotide binding experiment by 1H NMR, dGMP", "conditions": "molar ratio 1:3.5, 37 °C, 66 h, DMF-d7/D2O, compared to cisplatin", "excerpt": "as §1, §2"}, "[4]": {"tested_on": "human ovarian cancer cell line A2780", "experiment": "Cellular viability assay (resazurin / Alamar Blue, 72 h)", "conditions": "A2780, 72 h at 37 °C, compared to cisplatin; result in words"}, "A2780cis": {"tested_on": "A2780cis", "experiment": "Cellular viability assay (resazurin / Alamar Blue, 72 h), cisplatin-resistant variant", "conditions": "72 h at 37 °C, compared to cisplatin, result in words"}, "[5]": {"conditions": "compared to cisplatin; cited from earlier work"}},
  "data": [
    {"compound": "N.N.[Cl][Pt][Cl]", "note": "[Cisplatin, cis-dichlorodiamineplatinum(II)]", "values": [
      {"measurement": "cure rate", "setting": "testicular cancer", "value": 90, "unit": "%"}
    ]},
    {"compound": "cis-[1,2-diaminodiamantane]oxalatoplatinum(II) [(S,S)-2]", "values": [
      {"measurement": "solubility", "setting": "[1]; […]", "value": "insoluble"}
    ]},
    {"compound": "cis-[1,2-diaminodiamantane]dichlorideplatinum(II) [(R,R)-1]", "values": [
      {"measurement": "rate of bisadduct formation", "setting": "[2]", "value": "faster with (R,R)-1 than with cisplatin"},
      {"measurement": "rate of bisadduct formation", "setting": "[3]", "value": "faster with (R,R)-1 than with cisplatin"}
    ]},
    {"compound": "cis-[1,2-diaminodiamantane]dichlorideplatinum(II) [(S,S)-1]", "values": [
      {"measurement": "rate of bisadduct formation", "setting": "[3]", "value": "faster than for (R,R)-1 and cisplatin"},
      {"measurement": "cytotoxicity", "setting": "[4]", "value": "lowest efficacy"},
      {"measurement": "cytotoxicity", "setting": "A2780cis", "value": "lowest efficacy"}
    ]},
    {"compound": "N.N.O=C([O-])C1(C(=O)[O-])CCC1.[Pt+2]", "note": "[Carboplatin]", "values": [
      {"measurement": "increase in concentration to achieve the same effect", "setting": "[5]", "value": "20-40 fold"}
    ]},
    {"compound": "cis-[1,2-diaminodiamantane]dichlorideplatinum(II) [compound 1]", "values": [
      {"measurement": "solubility", "setting": "[1]; in DMF", "value": "good solubility"},
      {"measurement": "solubility", "setting": "[1]; in methanol", "value": "somewhat soluble"}
    ]}
  ]
}
